According to patent US20250051338A1, “TYK2 DEGRADERS AND USES THEREOF” (Kymera Therapeutics, Inc., priority 2021, published 2025):

Assays:
Format in all cases: cell-based
TYK2 [1] = target: T1, TYK2 (Homo sapiens, UniProt P29597); assay: TYK2 degradation MSD assay in human PBMC cells; design: endogenous in cells; host or cells: human PBMC; details: 4 to 24 hours incubation, read-out: TYK2 MSD DC50 rating in human PBMC
Outline: (§1)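 DC50 values reflect dose-dependent decrease of TYK2 protein, read by MSD after cells were exposed to compound (top 1 to 10 μM, 1:3, 9 doses) for 4 to 24 hours at 37° C.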

TYK2 [2] = target: T1, TYK2; assay: TYK2 degradation MSD assay in OCI-LY10 cells; design: endogenous in cells; host or cells: EBV-B cells; details: 4 to 24 hours incubation, read-out: TYK2 MSD DC50 rating in OCI-LY10
Outline: as §1

TYK2 [3] = target: T1, TYK2; assay: TYK2 degradation MSD assay in EBV-B cells; design: endogenous in cells; host or cells: EBV-B cells; details: 4 to 24 hours incubation, read-out: TYK2 MSD DC50 rating in EBV-B
Outline: as §1

T1 sequence (P29597 whole entry): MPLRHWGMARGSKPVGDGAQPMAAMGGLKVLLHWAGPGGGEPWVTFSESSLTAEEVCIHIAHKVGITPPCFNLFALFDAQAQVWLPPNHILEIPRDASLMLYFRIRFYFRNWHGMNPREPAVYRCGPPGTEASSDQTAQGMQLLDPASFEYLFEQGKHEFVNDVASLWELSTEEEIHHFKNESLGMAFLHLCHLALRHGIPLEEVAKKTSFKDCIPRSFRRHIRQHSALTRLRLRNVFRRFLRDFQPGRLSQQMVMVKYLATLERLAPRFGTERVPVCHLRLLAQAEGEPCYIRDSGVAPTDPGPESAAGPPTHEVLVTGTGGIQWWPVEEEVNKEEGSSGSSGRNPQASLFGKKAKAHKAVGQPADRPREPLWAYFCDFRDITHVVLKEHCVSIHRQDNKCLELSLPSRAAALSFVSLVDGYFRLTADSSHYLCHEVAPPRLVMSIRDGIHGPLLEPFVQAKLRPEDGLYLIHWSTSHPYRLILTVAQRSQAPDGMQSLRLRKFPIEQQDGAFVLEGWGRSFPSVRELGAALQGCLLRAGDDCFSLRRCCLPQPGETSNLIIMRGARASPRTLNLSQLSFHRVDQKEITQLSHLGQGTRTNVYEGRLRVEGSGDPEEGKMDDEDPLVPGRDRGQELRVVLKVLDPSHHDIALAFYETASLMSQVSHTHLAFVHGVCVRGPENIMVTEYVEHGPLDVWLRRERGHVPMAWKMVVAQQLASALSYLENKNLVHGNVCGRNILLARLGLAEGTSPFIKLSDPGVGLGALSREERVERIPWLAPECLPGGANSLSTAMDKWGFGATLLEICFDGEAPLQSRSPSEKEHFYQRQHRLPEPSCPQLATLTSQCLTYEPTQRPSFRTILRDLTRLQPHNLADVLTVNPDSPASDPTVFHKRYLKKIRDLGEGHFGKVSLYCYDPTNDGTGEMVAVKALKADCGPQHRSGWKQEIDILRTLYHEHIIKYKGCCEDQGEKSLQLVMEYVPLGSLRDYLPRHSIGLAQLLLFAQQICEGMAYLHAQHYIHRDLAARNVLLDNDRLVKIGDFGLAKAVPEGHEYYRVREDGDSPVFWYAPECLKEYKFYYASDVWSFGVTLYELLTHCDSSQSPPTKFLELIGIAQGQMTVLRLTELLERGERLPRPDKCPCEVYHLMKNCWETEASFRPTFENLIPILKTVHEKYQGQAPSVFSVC

SMILES | DC50 (TYK2 [1]) [nM] | DC50 (TYK2 [2]) [nM] | DC50 (TYK2 [3]) [nM]
CNc1cc(Nc2cccn(-c3ccc(C(=O)N4CCC(CN5CCC(c6ccc7c(c6)n(C)c(=O)n7C6CCC(=O)NC6=O)CC5)CC4)cn3)c2=O)nn2c(C(=O)N[C@@H]3C[C@@H]3F)cnc12 (stereo partly drawn) [Example K408] | > 100 | < 1 | > 100
CNC(=O)c1cnc(Nc2ccc(CN3CCC(N(C)c4ccc5c(c4)n(C)c(=O)n5C4CCC(=O)NC4=O)C3)cn2)cc1Nc1cccc(-c2ncc(F)cn2)c1OC (stereo not drawn) [Example K164] | > 100 | > 100 | < 1
CNc1cc(Nc2cccc(-c3ccc(CN4CCN(c5ccc(-c6ccc7c(c6)n(C)c(=O)n7C6CCC(=O)NC6=O)cc5)CC4)cn3)c2)nn2c(C(=O)NC3CC3OC)cnc12 (stereo not drawn) [Example K482] | > 100 | 1 to 10 | > 100
Cn1c(=O)n(C2CCC(=O)NC2=O)c2ccc(-c3ccc(N4CCN(Cc5ccc(-c6cccc(Oc7ccc8ncc(C(=O)NC9CC9)n8n7)c6)nc5)CC4)cc3)cc21 (stereo not drawn) [Example K456] | > 100 | > 100 | > 100
CNc1cc(-c2cnn(C3CCN(C(=O)NCCCCCCc4ccc5c(c4)n(C)c(=O)n5C4CCC(=O)NC4=O)CC3)c2)nn2c(C(=O)N[C@@H]3C[C@@H]3F)cnc12 (stereo partly drawn) [Example K311] | > 100 | > 100 | > 100
CNc1cc(Nc2cccn(-c3ccc(C(=O)N4CCC(OCC#Cc5cccc6c5n(C)c(=O)n6C5CCC(=O)NC5=O)CC4)cn3)c2=O)nn2c(C(=O)N[C@@H]3C[C@@H]3F)cnc12 (stereo partly drawn) [Example K421] | > 100 | 1 to 10 | > 100
CNc1cc(Nc2cccn(-c3ccc(C(=O)C4CCC(C5CCN(c6ccc7c(c6)n(C)c(=O)n7C6CCC(=O)NC6=O)C5)CN4)cn3)c2=O)nn2c(C(=O)N[C@@H]3C[C@@H]3F)cnc12 (stereo partly drawn) [Example K424] | > 100 | > 100 | > 100
CNc1cc(Nc2cccc(C(=O)NCCCCc3cccc4c3n(C)c(=O)n4C3CCC(=O)NC3=O)c2)nn2c(C(=O)N[C@@H]3C[C@@H]3F)cnc12 (stereo partly drawn) [Example K248] | > 100 | > 100 | > 100
O=C1CCN(c2cc(C(=O)N3CCC4(CC3)CN(Cc3ccc(-c5cccc6c5CCN6c5ccc6ncc(C(=O)NC7CC7)n6n5)nc3)C4)ccc2Cl)C(=O)N1 [Example K554] | > 100 | > 100 | > 100
CNc1cc(Nc2cccc(-c3ccc(CN4CCN(c5ccc(-c6ccc7c(c6)n(C)c(=O)n7C6CCC(=O)NC6=O)cc5)CC4)cn3)c2C(F)F)nn2c(C(=O)N[C@@H]3C[C@@H]3F)cnc12 (stereo partly drawn) [Example K611] | > 100 | 1 to 10 | > 100
CNc1cc(Nc2ccccc2C(=O)NCCCCCCc2ccc3c(c2)n(C)c(=O)n3C2CCC(=O)NC2=O)nn2c(C(=O)N[C@@H]3C[C@@H]3F)cnc12 (stereo partly drawn) [Example K255] | < 1 | > 100 | > 100
CNC(=O)c1cnc(Nc2ccc(CN3CCC(OC4CC(c5cccc6c5n(C)c(=O)n6C5CCC(=O)NC5=O)C4)CC3)cn2)cc1Nc1cccc(-c2ncc(F)cn2)c1OC (stereo not drawn) [Example K141] | < 1 | < 1 | > 100
CNc1cc(Nc2cccc(CN3CCN(c4ccc(-c5ccc6c(c5)n(C)c(=O)n6C5CCC(=O)NC5=O)cc4)CC3)c2OC)nn2c(C(=O)N[C@@H]3C[C@@H]3F)cnc12 (stereo partly drawn) [Example K576] | > 100 | > 100 | > 100
CNc1cc(Nc2cccn(-c3cccc(C(=O)NCCCCc4ccc5c(c4)n(C)c(=O)n5C4CCC(=O)NC4=O)c3)c2=O)nn2c(C(=O)N[C@@H]3C[C@@H]3F)cnc12 (stereo partly drawn) [Example K227] | > 100 | > 100 | > 100
CNc1cc(N2CCc3c(C4CCN(CC5CCN(C(=O)c6ccc(Cl)c(N7CCC(=O)NC7=O)c6)CC5)CC4)cccc32)nn2c(C(=O)N[C@@H]3C[C@@H]3F)cnc12 (racemic) [Example K535] | > 100 | > 100 | > 100
CNc1cc(Nc2cccnc2OCC2CCN(C3CCN(c4ccc5c(c4)n(C)c(=O)n5C4CCC(=O)NC4=O)CC3)CC2)nn2c(C(=O)NC3CC3F)cnc12 (stereo not drawn) [Example K659] | > 100 | 1 to 10 | > 100

SMILES | DC50 (TYK2 [1]) [nM] | DC50 (TYK2 [2]) [nM] | DC50 (TYK2 [3]) [nM]
CNc1cc(Nc2cccn(-c3ccc(C(=O)N4CCN(CCOc5cccc(-c6ccc7c(c6)n(C)c(=O)n7C6CCC(=O)NC6=O)c5)CC4)cn3)c2=O)nn2c(C(=O)N[C@@H]3C[C@@H]3F)cnc12 (stereo partly drawn) [Example K440] | > 100 | < 1 | > 100
CNC1=CC(Nc2cccc(-c3ccc(CN4CC5(CCN(c6cccc7c(C8CCC(=O)NC8=O)cccc67)CC5)C4)cn3)c2)=NC2C(C(=O)N[C@@H]3C[C@@H]3F)=CN=C12 (stereo partly drawn) [Example K512] | > 100 | 1 to 10 | < 1
CNc1cc(Nc2cccc(CN3CC(C)(Cc4ccc5c(c4)n(C)c(=O)n5C4CCC(=O)NC4=O)C3)c2)nn2c(C(=O)NC3CC3)cnc12 (stereo not drawn) [Example K607] | > 100 | > 100 | > 100
CNC(=O)c1cnc(Nc2ccc(C(=O)N(C)C3CCN(c4ccc5c(c4)n(C)c(=O)n5C4CCC(=O)NC4=O)CC3)cn2)cc1Nc1ccccc1OC (stereo not drawn) [Example K133] | > 100 | > 100 | 1 to 10
CNc1cc(Nc2cccc(-c3ccc(CN4CCN(c5cccc6c5n(C)c(=O)n6C5CCC(=O)NC5=O)CC4)cn3)c2)nn2c(C(=O)N[C@@H]3C[C@@H]3F)cnc12 (stereo partly drawn) [Example K460] | > 100 | < 1 | > 100
CNc1cc(Nc2cccc(CN3CCC4(CC3)CCN(c3ccc5c(c3)[nH]c(=O)n5C3CCC(=O)NC3=O)C4)c2)nn2c(C(=O)NC3CC3)cnc12 (stereo not drawn) [Example K601] | > 100 | > 100 | > 100
CNc1cc(Nc2ccccc2C(=O)NCCCCCCc2cccc3c2n(C)c(=O)n3C2CCC(=O)NC2=O)nn2c(C(=O)N[C@@H]3C[C@@H]3F)cnc12 (stereo partly drawn) [Example K257] | 1 to 10 | 10 to 100 | > 100
CNC(=O)c1cnc(Nc2ccc(CN3CCC(N(C)c4cccc5c4n(C)c(=O)n5C4CCC(=O)NC4=O)C3)cn2)cc1Nc1cccc(-c2ncc(F)cn2)c1OC (stereo not drawn) [Example K705] | > 100 | > 100 | < 1
CNC(=O)c1cnc(Nc2ccc(CN3CCC(c4cccc5c4n(C)c(=O)n5C4CCC(=O)NC4=O)CC3)cn2)cc1Nc1cccc(-c2ncc(F)cn2)c1OC (stereo not drawn) [Example K167] | > 100 | > 100 | < 1
CNc1cc(Nc2cccn(C3CCN(C(=O)N(C)C4CCN(Cc5cccc6c5n(C)c(=O)n6C5CCC(=O)NC5=O)CC4)CC3)c2=O)nn2c(C(=O)N[C@@H]3C[C@@H]3F)cnc12 (stereo partly drawn) [Example K396] | > 100 | > 100 | 1 to 10
CNc1cc(Nc2cccc(-c3ccc(CN4CCN(C(=O)c5ccc(Cl)c(N6CCC(=O)NC6=O)c5)CC4)cn3)c2OC)nn2c(C(=O)N[C@@H]3C[C@@H]3F)cnc12 [Example K489] | > 100 | > 100 | > 100
CNC(=O)c1cnc(Nc2ccc(CN3CC4(CCN(c5cccc6c5n(C)c(=O)n6C5CCC(=O)NC5=O)CC4)C3)cn2)cc1Nc1cccc(-c2ncc(F)cn2)c1OC (stereo not drawn) [Example K150] | < 1 | > 100 | < 1
CNc1cc(Nc2cccc(-c3ccc(CN4CCN(c5ccc6c(c5)n(C)c(=O)n6C5CCC(=O)NC5=O)CC4)cn3)c2)nn2c(C(=O)N[C@@H]3C[C@@H]3F)cnc12 (stereo partly drawn) [Example K523] | > 100 | 1 to 10 | > 100
CNC(=O)c1cnc(NC(=O)NCCCCCCCc2cccc3c2n(C)c(=O)n3C2CCC(=O)NC2=O)cc1Nc1cccc(-c2ncc(F)cn2)c1OC (stereo not drawn) [Example K185] | 1 to 10 | > 100 | > 100
Cn1c(=O)n(C2CCC(=O)NC2=O)c2ccc(CCCCC(=O)N3CCC(n4cc(-c5ccc6ncc(C(=O)N[C@@H]7C[C@@H]7F)n6n5)cn4)CC3)cc21 (stereo partly drawn) [Example K327] | > 100 | > 100 | > 100
